Results reported in US4539429A, “Substituted aminophenylalkyl ketones, their preparation and use” (Sterling Drug Inc., priority 1983, dated 1985).
Read-outs that look alike come from different tables or passages of the source.

Experiments:
lipoxygenase = biological target: T1, lipoxygenase (Rattus norvegicus, UniProt P12527); assay: Inhibition of lipoxygenase from rat basophilic leukemia (RBL-1) cells (formation of L1 5,12-di-HETE and L2 5-HETE); assay type: biochemical
T1 construct: Single cell suspensions of RBL-1 cells are homogenized to obtain the microsomal fraction containing lipoxygenase and cyclooxygenase; endogenous in cells; host or cells: RBL-1 (rat basophilic leukemia) cells
T1 sequence (P12527 1-673): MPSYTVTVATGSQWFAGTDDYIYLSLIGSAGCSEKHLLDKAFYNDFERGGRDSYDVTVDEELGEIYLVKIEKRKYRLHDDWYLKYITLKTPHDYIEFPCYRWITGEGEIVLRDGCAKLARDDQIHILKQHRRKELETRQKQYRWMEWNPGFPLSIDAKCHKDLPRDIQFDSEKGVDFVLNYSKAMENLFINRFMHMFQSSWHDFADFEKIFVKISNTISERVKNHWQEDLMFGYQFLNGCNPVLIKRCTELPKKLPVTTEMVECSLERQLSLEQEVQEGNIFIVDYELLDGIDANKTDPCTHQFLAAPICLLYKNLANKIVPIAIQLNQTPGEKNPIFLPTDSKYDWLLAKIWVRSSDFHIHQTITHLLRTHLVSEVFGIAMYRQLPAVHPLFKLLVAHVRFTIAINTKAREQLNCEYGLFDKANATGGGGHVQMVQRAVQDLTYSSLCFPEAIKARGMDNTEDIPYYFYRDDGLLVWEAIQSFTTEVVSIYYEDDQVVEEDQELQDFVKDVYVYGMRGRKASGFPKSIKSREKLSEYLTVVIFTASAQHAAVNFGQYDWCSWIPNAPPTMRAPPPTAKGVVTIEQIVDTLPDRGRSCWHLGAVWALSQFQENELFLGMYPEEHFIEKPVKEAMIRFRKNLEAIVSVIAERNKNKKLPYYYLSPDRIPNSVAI
Method: (§1) The primary screening test used is a determination of the inhibition of lipoxygenase and cyclooxygenase derived from rat basophilic leukemia (RBL-1) cells. The test was carried out according to the following procedure:
(§2) Single cell suspensions of RBL-1 cells are homogenized to obtain the microsomal fraction containing lipoxygenase and cyclooxygenase. Test compounds are added to the enzyme-containing homogenate for a 5 min preincubation period at 37° C. prior to the additon of ^14 C-arachidonic acid substrate. Following incubation at 37° C. for 15 min, the reaction is stopped by the addition of 2M formic acid and the enzyme-substrate products are extracted into chloroform. An aliquot of the extract is evaporated to dryness, reconstituted in ether to 1/10 original volume, spotted on thin layer chromatography plates and chromatographed. The peak areas of radioactivity representing the products are located by scanning the plates. The quantity of products formed is estimated by measuring the height of the radioactivity peaks observed on the chromatographic scans. Alternatively, the areas of radioactivity are scraped from the plate and the ^14 C quantitated by scintillation counting.

cyclooxygenase = biological target: T2, cyclooxygenase (Rattus norvegicus, UniProt Q63921); assay: Inhibition of cyclooxygenase from rat basophilic leukemia (RBL-1) cells (formation of PGD2, C1); assay type: biochemical; settings: cyclooxygenase product PGD2 (C1); for inhibition at 1 µM: read-out: % Inhibition of cyclooxygenase (Cl) formation
T2 construct: Single cell suspensions of RBL-1 cells are homogenized to obtain the microsomal fraction containing lipoxygenase and cyclooxygenase; endogenous in cells; host or cells: RBL-1 (rat basophilic leukemia) cells
T2 sequence (Q63921 27-602): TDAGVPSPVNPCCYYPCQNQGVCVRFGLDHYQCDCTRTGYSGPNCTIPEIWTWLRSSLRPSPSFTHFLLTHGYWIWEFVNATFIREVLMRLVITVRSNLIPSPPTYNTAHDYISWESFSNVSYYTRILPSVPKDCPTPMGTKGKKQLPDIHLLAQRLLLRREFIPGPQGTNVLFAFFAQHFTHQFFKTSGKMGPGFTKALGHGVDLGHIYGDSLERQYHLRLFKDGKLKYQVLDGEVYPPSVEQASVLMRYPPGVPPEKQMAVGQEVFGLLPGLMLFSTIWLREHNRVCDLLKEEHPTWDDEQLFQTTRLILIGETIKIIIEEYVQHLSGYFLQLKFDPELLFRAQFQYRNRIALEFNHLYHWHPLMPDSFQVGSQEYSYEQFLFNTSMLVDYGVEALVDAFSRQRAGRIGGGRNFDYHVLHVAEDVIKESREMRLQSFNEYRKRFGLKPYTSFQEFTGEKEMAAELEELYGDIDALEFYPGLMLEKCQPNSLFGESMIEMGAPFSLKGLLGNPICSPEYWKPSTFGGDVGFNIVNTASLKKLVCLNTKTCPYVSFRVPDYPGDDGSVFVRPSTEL
Method: as §1, §2

[1] = tested on: SRS-A component of immunologically induced bronchoconstriction; assay: Effect on the SRS-A component of immunologically induced bronchoconstriction in guinea pigs; assay type: in vivo, guinea pig
Method: The test was carried out according to the following procedure:
Two weeks after immunization with egg albumin, guinea pigs are prepared for bronchoconstriction determination. One hour prior to antigen challenge, each animal is dosed orally with indomethacin and chlorpheniramine. Animals are anesthetized with sodium pentobarbital, the trachea cannulated and the animal artifically respired. Arachidonic acid is administered intravenously prior to antigen challenge. The resulting bronchoconstriction is recorded by the standard lung overflow procedure and the peak increase in intratracheal pressure (mm Hg) over a 10 minute observation period is recorded. Compounds are evaluated for their ability to prevent the increased intratracheal pressure in an experimental group of animals as compared to the medicated (indomethacin+chlorpheniramine+arachidonic acid) control group. The results are expressed in terms of percent inhibition or as ED50 values (effective dose in 50% of the animals).

| inhibition at 1 µM (lipoxygenase; 1 μM, L1 = 5,12-di-HETE, read-out: % Inhibition of lipoxygenase (L1) formation) | inhibition at 1 µM (lipoxygenase; 1 μM, L2 = 5-HETE, read-out: % Inhibition of lipoxygenase (L2) formation) | Structure (SMILES) | IC50 (lipoxygenase) | inhibition at 1 µM (lipoxygenase; read-out: % Inhibition of lipoxygenase (L1) formation) | inhibition at 1 µM (lipoxygenase; read-out: % Inhibition of lipoxygenase (L2) formation) | inhibition at 1 µM (cyclooxygenase) | IC50 (cyclooxygenase) | ED50 ([1]; Cavia porcellus, iv, indomethacin + chlorpheniramine pretreated, arachidonic acid i.v. before antigen challenge, read-out: In vivo Guinea Pig ED50) | In vivo Guinea Pig % inhib. ([1]; at 1 mg/kg orally, increased intratracheal pressure vs medicated control group) |
| --- | --- | --- | --- | --- | --- | --- | --- | --- | --- |
|  |  | COc1ccc(Nc2ccc(O)cc2)c(C(C)=O)c1 [Example 1c, 1-[2-(4-Hydroxyphenylamino)-5-methoxyphenyl]ethanone] | 70 nM | 88% | 88% | 36% | > 1000 nM | 2.7 mg/kg | 52% |
| 61% | 72% | CC(=O)c1ccccc1Nc1ccc(O)cc1 [Example 2c, 1-[2-(4-Hydroxyphenylamino)phenyl]ethanone] |  |  |  | 9% |  |  |  |
